Calls of active or inactive are those of the source.
What was measured:
Leucine aminopeptidase = target: T1, Leucine aminopeptidase (Plasmodium falciparum 3D7, UniProt Q8IL11); test: P. falciparum M17LAP inhibitors, primary screen, biochemical, fluorogenic H-Leu-NHMec substrate, 1536-well (AID 1619); type: functional
T1 sequence (Q8IL11 whole entry): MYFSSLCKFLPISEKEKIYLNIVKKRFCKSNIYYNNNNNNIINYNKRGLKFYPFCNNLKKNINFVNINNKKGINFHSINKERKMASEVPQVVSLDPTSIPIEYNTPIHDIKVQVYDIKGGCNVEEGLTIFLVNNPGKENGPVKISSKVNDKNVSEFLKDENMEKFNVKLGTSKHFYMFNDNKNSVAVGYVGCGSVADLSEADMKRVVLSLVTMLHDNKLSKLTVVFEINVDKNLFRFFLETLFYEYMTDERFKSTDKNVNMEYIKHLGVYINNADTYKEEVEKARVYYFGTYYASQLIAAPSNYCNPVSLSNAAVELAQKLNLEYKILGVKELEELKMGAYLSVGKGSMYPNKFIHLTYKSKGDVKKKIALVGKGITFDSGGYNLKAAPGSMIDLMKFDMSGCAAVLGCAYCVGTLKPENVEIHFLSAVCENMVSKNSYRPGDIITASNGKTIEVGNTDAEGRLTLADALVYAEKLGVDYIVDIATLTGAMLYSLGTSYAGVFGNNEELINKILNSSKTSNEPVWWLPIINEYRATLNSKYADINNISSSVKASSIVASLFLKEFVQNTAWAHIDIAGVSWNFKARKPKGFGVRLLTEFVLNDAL

[1] = target: Luciferin 4-monooxygenase (Photinus pyralis, UniProt P08659); test: firefly luciferase enzyme inhibitors, dose response, biochemical, luminescence (AID 1891)
[2] = Luminescence Cell-Based Dose Confirmation HTS to Identify Inhibitors of Platelet Dense Granule Release. [Related pubchem assays: 1663 (Primary HTS), 1678 (Summary of Project)]; type: functional
[3] = target: T2, Carboxy-terminal domain RNA polymerase II polypeptide A small phosphatase 1 (Homo sapiens, UniProt Q9GZU7); test: inhibitors of CTDSP1, concentration-response testing, biochemical assay, absorbance-based, actives from ultra-high-throughput screening (AID 540297); type: functional
T2 sequence (Q9GZU7 whole entry): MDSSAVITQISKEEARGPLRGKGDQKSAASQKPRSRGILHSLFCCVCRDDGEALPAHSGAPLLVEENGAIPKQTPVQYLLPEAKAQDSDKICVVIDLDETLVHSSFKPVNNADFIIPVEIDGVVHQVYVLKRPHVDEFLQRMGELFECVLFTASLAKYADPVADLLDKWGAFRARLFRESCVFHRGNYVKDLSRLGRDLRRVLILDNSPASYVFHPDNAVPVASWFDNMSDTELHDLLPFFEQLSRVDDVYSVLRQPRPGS

Streptococcus = test: Group A Streptococcus viability loss, dose response, counter-screen for streptokinase expression inhibitor project, luminescence, BacTiterGlo (AID 1915); type: functional, organism-based;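 note: potency for reduction of bacterial viability or growth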
[4] = microbe, parasite or virus in culture; type: functional; settings: Mycobacterium tuberculosis
[5] = test system: Streptococcus sp. 'group A'; test: growth inhibition of control SK(-) GAS strain, dose response, counter-screen for streptokinase expression inhibitor project, luminescence, kanamycin, BacTiterGlo, confirmation (AID 1900); type: functional, organism-based
[6] = THP-1 cell cytotoxicity, dose response, cytotoxicity control for non-replicating M. tuberculosis project (AID 489025); type: functional
cells = type: functional
[7] = target: FAD-linked sulfhydryl oxidase ALR (Homo sapiens, UniProt P55789); test: inhibitors of human ALR sulfhydryl oxidase, dose response, biochemical, H2O2 detection, luminescence, cherry-pick (AID 493248)
Cytochrome P450 2C9 = Cytochrome P450 2C9 (Homo sapiens, UniProt P11712)
[8] = target: T3, Short transient receptor potential channel 4 (Mus musculus, UniProt Q9QUQ5); test: mouse TRPC4 channel inhibitors, dose response, cell-based, HEK293 TRPC4/mu-opioid, Fluo-4 calcium (AID 434942); type: functional;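 note: potency of inhibitors blocking the TRPC4 calcium response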
T3 sequence (Q9QUQ5 whole entry): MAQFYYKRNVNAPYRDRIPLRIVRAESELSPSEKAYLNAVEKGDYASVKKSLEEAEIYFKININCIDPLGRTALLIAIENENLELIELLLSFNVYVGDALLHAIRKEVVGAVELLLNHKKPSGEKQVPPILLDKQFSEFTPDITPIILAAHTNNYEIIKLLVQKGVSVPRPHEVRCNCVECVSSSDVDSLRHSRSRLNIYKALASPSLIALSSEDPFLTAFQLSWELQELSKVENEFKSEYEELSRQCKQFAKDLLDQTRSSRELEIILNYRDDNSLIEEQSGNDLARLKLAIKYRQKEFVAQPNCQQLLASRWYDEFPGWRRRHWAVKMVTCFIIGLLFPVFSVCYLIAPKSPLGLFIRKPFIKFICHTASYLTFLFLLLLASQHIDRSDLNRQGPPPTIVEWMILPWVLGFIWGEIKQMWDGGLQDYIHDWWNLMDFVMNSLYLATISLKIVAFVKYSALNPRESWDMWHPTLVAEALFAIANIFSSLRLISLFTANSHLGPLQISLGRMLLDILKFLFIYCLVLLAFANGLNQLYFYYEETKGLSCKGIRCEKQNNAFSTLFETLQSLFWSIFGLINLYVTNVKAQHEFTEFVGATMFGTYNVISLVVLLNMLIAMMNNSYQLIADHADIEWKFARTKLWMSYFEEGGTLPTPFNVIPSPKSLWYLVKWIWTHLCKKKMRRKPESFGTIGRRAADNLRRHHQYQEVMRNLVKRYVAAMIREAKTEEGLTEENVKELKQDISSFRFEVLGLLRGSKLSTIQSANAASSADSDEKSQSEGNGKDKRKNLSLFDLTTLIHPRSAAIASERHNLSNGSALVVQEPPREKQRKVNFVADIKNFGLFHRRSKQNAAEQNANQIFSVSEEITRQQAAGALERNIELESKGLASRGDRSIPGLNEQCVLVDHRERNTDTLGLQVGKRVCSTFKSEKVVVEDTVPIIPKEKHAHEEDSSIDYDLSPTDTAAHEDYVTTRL

[9] = target: T3, Short transient receptor potential channel 4; test: mouse TRPC4 channel activators, dose response, cell-based, HEK293 TRPC4/mu-opioid, Fluo-4 calcium (AID 434937); type: functional
Cytochrome P450 2C19 = Cytochrome P450 2C19 (Homo sapiens, UniProt P33261); test: Cytochrome panel assay with activity outcomes. Panel member name: p450-cyp2c19 Compounds with AC50 equal or less than 10 uM are considered active; type: functional; settings: read-out: AC50
[10] = target: Eukaryotic translation initiation factor 4E (Mus musculus, UniProt P63073); test: eIF4E–eIF4G protein interaction inhibitors, dose response, biochemical, TR-FRET (AID 855); type: functional;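 note: potency for disrupting eIF4E binding to eIF4GI seen as loss of FRET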
Nonstructural protein 1 = Nonstructural protein 1 (Influenza A virus, UniProt Q194T2); type: functional, Influenza A virus (A/California/07/2009(H1N1))
[11] = target: Heat shock protein HSP 90-alpha (Homo sapiens, UniProt P07900); type: functional, organism-based
Cytochrome P450 3A4 = Cytochrome P450 3A4 (Homo sapiens, UniProt P08684);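 note: CYP3A4 tested as one member of a cytochrome P450 panel screen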
[12] = cytotoxicity toward NIH3T3 fibroblasts, dose response, counter-screen, cell-based, ATP luminescence, mouse fibroblasts (AID 2010); type: functional;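 note: cells exposed to compound for about 90 hours before reading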
[13] = inhibitors of intracellular T. cruzi replication, confirmation, NIH3T3 host cells, beta-gal luminescence (AID 2044); type: functional, cell-based;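 note: intracellular parasites grown in NIH/3T3 mouse fibroblasts as host cells; luminescent beta-galactosidase reporter signal from transgenic T. cruzi replicating inside host cells; inhibitors lower the luminescence signal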
[14] = target: T4, Heat shock factor protein 1 (Mus musculus, UniProt P38532); test: HSF1 potentiators in luciferase reporter cells, confirmation, cell-based, NIH3T3, luminescence, dose retest (AID 435004); type: functional;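 note: stress induced by proteasome inhibitor MG132 added 30 min after compound; luciferase reporter driven by HSF1 response element in NIH3T3 cells; actives raise luminescence as potentiators of the MG132 stress response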
T4 sequence (P38532 whole entry): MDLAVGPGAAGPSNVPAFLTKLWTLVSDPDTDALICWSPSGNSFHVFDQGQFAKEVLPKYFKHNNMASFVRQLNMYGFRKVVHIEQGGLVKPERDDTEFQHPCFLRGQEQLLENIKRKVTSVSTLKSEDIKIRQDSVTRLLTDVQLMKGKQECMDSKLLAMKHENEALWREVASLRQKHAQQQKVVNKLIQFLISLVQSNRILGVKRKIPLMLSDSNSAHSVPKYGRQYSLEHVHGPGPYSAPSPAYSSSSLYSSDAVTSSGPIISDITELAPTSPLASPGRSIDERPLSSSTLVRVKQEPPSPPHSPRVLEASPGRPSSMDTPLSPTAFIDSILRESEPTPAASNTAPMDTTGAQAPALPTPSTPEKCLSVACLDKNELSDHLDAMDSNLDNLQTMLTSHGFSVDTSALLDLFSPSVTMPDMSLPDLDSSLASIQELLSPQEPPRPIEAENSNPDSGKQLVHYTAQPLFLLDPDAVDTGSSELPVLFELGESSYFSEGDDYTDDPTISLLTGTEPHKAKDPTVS

Large T antigen = Large T antigen (Simian virus 40, UniProt P03070); type: functional, Betapolyomavirus macacae;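 note: Confirmatory-stage PubChem screen for compounds that inhibit SV40 T antigen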
Chain of Large T antigen (P03070 whole entry): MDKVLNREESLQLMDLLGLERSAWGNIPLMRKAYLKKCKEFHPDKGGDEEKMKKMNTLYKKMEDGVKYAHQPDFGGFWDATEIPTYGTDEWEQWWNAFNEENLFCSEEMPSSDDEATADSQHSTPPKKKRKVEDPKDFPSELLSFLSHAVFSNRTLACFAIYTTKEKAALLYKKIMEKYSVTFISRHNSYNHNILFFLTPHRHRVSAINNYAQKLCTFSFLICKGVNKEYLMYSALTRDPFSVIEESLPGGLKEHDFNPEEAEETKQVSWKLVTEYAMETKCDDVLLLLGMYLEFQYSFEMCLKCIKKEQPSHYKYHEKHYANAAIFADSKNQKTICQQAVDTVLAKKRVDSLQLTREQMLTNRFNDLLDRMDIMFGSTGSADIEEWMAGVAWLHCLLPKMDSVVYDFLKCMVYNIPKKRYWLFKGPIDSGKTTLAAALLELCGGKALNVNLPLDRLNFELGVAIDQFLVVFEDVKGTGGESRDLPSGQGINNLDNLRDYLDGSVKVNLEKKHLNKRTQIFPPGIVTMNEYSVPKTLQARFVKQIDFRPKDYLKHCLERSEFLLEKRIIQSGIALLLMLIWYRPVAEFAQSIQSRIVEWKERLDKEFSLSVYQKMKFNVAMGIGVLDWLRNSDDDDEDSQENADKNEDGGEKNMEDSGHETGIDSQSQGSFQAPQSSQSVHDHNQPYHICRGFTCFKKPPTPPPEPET

Chain of FAD-linked sulfhydryl oxidase ALR (P55789 whole entry): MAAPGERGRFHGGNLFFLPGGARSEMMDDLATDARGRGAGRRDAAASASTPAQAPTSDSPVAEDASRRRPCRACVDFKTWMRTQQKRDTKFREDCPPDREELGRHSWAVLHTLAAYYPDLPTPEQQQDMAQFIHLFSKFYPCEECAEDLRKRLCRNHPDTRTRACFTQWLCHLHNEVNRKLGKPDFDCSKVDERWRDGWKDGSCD
Chain of Luciferin 4-monooxygenase (P08659 whole entry): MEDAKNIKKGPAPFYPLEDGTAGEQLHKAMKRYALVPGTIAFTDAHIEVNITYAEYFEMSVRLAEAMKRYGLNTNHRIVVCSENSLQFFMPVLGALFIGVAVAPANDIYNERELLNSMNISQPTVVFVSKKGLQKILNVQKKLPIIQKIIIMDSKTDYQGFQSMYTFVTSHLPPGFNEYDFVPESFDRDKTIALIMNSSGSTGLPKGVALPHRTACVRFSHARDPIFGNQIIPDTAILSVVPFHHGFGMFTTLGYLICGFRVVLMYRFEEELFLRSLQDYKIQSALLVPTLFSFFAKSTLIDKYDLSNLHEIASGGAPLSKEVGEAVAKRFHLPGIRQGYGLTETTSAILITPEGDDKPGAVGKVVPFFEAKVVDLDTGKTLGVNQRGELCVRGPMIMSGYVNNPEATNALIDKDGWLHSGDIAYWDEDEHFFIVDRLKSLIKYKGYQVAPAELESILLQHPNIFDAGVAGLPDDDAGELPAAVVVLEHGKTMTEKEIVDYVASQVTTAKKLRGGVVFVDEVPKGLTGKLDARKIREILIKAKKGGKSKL
Chain of Cytochrome P450 2C9 (P11712 whole entry): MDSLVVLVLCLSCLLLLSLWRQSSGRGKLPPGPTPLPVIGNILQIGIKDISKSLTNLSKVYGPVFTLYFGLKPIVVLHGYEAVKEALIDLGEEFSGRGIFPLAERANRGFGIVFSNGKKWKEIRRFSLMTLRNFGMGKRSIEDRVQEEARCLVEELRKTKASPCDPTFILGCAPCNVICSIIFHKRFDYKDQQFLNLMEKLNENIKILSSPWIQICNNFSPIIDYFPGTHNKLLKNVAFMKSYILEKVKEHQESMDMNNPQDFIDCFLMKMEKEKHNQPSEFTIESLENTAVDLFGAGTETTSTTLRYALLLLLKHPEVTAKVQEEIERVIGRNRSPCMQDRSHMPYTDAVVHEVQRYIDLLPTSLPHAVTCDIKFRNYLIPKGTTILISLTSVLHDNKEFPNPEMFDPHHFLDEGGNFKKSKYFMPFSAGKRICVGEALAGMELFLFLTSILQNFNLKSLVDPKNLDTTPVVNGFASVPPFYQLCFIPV
Chain of Nonstructural protein 1 (Q194T2 whole entry): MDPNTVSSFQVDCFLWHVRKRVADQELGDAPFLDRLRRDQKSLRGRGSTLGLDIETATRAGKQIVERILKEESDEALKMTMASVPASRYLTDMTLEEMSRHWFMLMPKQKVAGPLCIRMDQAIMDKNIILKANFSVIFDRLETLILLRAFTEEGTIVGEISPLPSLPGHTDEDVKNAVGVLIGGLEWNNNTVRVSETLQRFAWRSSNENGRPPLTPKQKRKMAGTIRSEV
Chain of Eukaryotic translation initiation factor 4E (P63073 whole entry): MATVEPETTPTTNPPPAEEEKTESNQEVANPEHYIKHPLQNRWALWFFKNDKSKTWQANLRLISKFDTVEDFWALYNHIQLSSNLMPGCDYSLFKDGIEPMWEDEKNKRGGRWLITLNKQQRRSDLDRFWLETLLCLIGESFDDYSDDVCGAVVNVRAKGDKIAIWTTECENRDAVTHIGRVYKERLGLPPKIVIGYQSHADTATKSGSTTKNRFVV
Chain of Cytochrome P450 3A4 (P08684 whole entry): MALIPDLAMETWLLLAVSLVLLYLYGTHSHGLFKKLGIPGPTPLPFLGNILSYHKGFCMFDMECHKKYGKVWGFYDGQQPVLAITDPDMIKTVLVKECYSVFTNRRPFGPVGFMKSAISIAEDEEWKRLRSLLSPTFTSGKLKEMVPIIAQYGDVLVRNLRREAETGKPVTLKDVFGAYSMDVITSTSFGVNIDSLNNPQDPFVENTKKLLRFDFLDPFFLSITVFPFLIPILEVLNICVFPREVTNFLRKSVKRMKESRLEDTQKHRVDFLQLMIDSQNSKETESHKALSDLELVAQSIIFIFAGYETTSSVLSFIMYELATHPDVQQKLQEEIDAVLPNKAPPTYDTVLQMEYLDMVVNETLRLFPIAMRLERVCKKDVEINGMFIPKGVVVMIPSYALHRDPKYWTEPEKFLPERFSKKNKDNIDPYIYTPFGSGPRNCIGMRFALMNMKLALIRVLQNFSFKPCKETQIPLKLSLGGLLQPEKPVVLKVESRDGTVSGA
Chain of Cytochrome P450 2C19 (P33261 whole entry): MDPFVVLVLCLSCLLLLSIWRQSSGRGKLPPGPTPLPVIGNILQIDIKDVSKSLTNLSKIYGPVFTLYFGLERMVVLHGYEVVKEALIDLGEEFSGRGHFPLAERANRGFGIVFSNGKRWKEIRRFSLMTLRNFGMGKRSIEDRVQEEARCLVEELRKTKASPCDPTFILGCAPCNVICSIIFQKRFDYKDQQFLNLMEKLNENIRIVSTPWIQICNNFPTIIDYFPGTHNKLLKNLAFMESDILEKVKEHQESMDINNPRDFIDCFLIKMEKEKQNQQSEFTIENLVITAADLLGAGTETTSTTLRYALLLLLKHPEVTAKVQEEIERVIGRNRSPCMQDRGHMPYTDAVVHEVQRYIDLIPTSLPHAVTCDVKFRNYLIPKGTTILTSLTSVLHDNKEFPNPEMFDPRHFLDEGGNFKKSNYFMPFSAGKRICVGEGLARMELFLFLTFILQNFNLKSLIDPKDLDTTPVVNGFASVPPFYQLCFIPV

O=C(CSc1nc[nH]n1)Nc1ccc(S(=O)(=O)N2CCCC2)cc1
IC50 (Leucine aminopeptidase): 82.5 µM (active)

CCOC(=O)c1nc2sc3c(c2c(=O)[nH]1)CCCC3
EC50 [1]: > 112 µM (not active)

Cc1[nH]c(=O)c(C#N)cc1-c1ccncc1 [MILRINONE]
EC50 [1]: > 112 µM (not active)
EC50 [2]: 0.634 µM (active)

CC(C)N1C(=O)CC2(CC[N+](C)(CCOC(=O)C(O)(c3ccccc3)c3ccccc3)CC2)C1=O (stereo not given)
IC50 [3]: 6.22 µM (active)

CC(C)CC(=O)n1sc(NC(=O)c2ccccc2)nc1=O
IC50 (Leucine aminopeptidase): 43.9 µM (active)

Fc1ccc(C2CC(c3ccccc3)n3ncnc3N2)cc1 (stereo not given)
EC50 [1]: > 112 µM (not active)
EC50 [2]: > 112 µM (not active)

Cc1cc2nc(N/C(N)=N/C(=O)C(C)C)nc(C)c2cc1C
EC50 (Streptococcus): > 150 µM (not active)
CC50 [4]: > 40 µM (active)
EC50 [5]: > 150 µM (not active)
CC50 [6]: 17 µM (active)
IC50 (cells): 20.3 µM (active)

CCN(CC)CCNS(=O)(=O)c1ccc(C(=O)NN)cc1
AC50 [7]: 3.39 µM (active)

CCOC(=O)c1nc(O)c2c3c(sc2n1)CCCC3
EC50 [2]: > 112 µM (not active)

NS(=O)(=O)c1cc2c(cc1Cl)N[C@@H](CC1CCCC1)NS2(=O)=O
AC50 (Cytochrome P450 2C9): inconclusive

O=C(NCc1ccccc1)C1=C[C@H](c2ccc3c(c2)OCO3)C[C@H](OCc2ccc(CO)cc2)O1
EC50 [8]: 5.31 µM (active)
EC50 [9]: 4.73 µM (active)

O=C(NCCc1cccs1)C1CC(c2c(Cl)cccc2Cl)=NO1 (stereo not given)
AC50 (Cytochrome P450 2C19): 0.282 µM (inconclusive)
AC50 (Cytochrome P450 2C9): inconclusive

Cn1nc(C(=O)OCC(=O)Nc2sccc2C(N)=O)c2ccccc2c1=O
EC50 [1]: > 112 µM (not active)
EC50 [2]: > 112 µM (not active)

CC1=C(C(=O)OCc2ccccc2)C(c2ccc(Cl)cc2Cl)NC(=O)N1CCCCCC(=O)O (stereo not given)
IC50 (Leucine aminopeptidase): 20.4 µM (active)

Cc1ccc2nc(Cl)c(C3CC(c4cccs4)=NN3C(=O)CCCC(=O)O)cc2c1 (stereo not given)
IC50 [3]: 11.1 µM (active)

CCCN1CCC(=NNC(=O)c2ccc(Br)o2)CC1
IC50 [10]: > 64 µM (inactive)

COc1cc(C=NO)nc(-c2ccccn2)c1
IC50 (Nonstructural protein 1): 2.51 µM (active)
AC50 [11]: 3.2 µM (active)

COc1cc2cc(C(N)=O)c(N)nc2cc1OC
EC50 [1]: > 112 µM (not active)
EC50 [2]: 40 µM (active)

Cc1cc(C(=O)N/N=C/C=C/c2ccc(Br)cc2)[nH]n1
IC50 [3]: 7.02 µM (active)

CCCN(CCC(=O)Nc1cc(OC)cc(OC)c1)CC1CC1
EC50 [9]: 1.33 µM (active)

O=C1CC(N2CCc3ccccc32)C(=O)N1c1ccccc1 (stereo not given)
AC50 [7]: 0.677 µM (active)

COc1ccc(-c2nc3cnc(N4CCNCC4)nc3n(Cc3ccc(F)cc3)c2=O)cc1
AC50 (Cytochrome P450 3A4): 15.8 µM (inconclusive)
AC50 (Cytochrome P450 2C9): inconclusive

Cc1cc(OCCCn2ccnc2)cc(C)c1Cl
EC50 [12]: > 60 µM (not active)
EC50 [13]: 0.852 µM (active)
EC50 [9]: 5.31 µM (active)

CCOC(=O)N(O)c1ccc(C=Cc2ccccc2)cc1
IC50 [3]: 6.05 µM (active)

Cc1cc(Br)ccc1OCCn1ccnc1
EC50 [9]: 3.35 µM (active)

CC(C)COc1ccc(C(=O)Nc2ccc(NC(=O)c3ccco3)c(Cl)c2)cc1
EC50 [1]: > 112 µM (not active)
EC50 [2]: > 112 µM (not active)

COc1ccc(N2CC(C(=O)NCc3ccccc3)CC2=O)cc1 (stereo not given)
EC50 [1]: > 112 µM (not active)
EC50 [2]: > 112 µM (not active)

CCCc1c(O)nc(SCCN(CC)CC)nc1O
EC50 [9]: 1.68 µM (active)

CCCCN(CCCNC(=O)C1CCN(S(=O)(=O)CC)CC1)c1ccccc1
AC50 [7]: 0.131 µM (active)
EC50 [14]: > 260 µM (inactive)

Cc1ccsc1/C=N/n1c(S)nnc1-c1cccnc1
IC50 [10]: > 64 µM (inactive)
IC50 (Large T antigen): 30.3 µM (active)

CN(C)c1oc(-c2ccccc2)nc1C#N
AC50 (Cytochrome P450 2C9): inconclusive

COc1ccc(Nc2ccc(S(=O)(=O)N3CCCCCC3)cc2[N+](=O)[O-])cc1
IC50 (Nonstructural protein 1): 45.6 µM (active)

From ChEMBL document CHEMBL1201862, “PubChem BioAssay data set” (2004)
